Assay results published in patent US20240415819A1, “MACROCYCLIC COMPOUNDS AS PROTEASOME SUBUNIT BETA TYPE-5 INHIBITORS” (Lead Discovery Center GmbH, priority 2021, published 2024).
Read-outs that look alike come from different tables or passages of the source.

Assays:
[1] = biological target: T1, β5 subunit of the human immunoproteasome (IPS) (Homo sapiens, UniProt P28062); assay: β5 inhibition assay, human immunoproteasome (Suc-LLVY-AMC); format: biochemical; conditions: IC50 class, Suc-LLVY-AMC substrate
T1 construct: purchased Boston Biochem E-370
Outline: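 Human immunoproteasome (1 nM final) was preincubated 10 min at RT with compound in 100 mM HEPES pH 7.5, 50 mM NaCl, 0.02% SDS, 1 mM DTT. Suc-LLVY-AMC (22.6 μM final) was then added for 4 h at RT in the dark. After stopping with 1 μM bortezomib, AMC fluorescence was read (ex 355/em 460 nm).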

[2] = biological target: T2, β5 subunit of the human constitutive proteasome (CPS) (Homo sapiens, UniProt P28074); assay: β5 inhibition assay, human constitutive proteasome (Suc-LLVY-AMC); format: biochemical; conditions: IC50 class, Suc-LLVY-AMC substrate
T2 construct: purchased Boston Biochem E-360
Procedure: The enzymatic activity of the β5 subunit of the human constitutive proteasome (CPS) is analyzed. In another assay, which differs from the assay of the human constitutive proteasome only in using the human immunoproteasome (IPS) the enzymatic activity of the β5 subunit of the human immunoproteasome (IPS) is analyzed. […] Inhibition is indicated as IC50 [nM] (“-”=not measured).

HT-29 cells = assay: CellTiter-Glo luminescent cell viability assay with HT-29 cells (72h incubation); format: cell-based, human; conditions: Homo sapiens, HT-29, HT29 cells, read-out: CTG HT29
Outline: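 400 cells per well in DMEM/10% FCS were dosed after 24 h and kept 72 h at 37 °C, 5% CO2. ATP-based luminescence (CellTiter-Glo) normalized to DMSO and 10 μM staurosporine controls; IC50 by dose-response fit.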

[3] = test system: A549 (human lung carcinoma cell line); assay: Glo assay of A549 cells (Table 3; ProteasomeGlo plating scheme); format: cell-based; conditions: Homo sapiens
Outline: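 Compound treatment lasts 105 minutes at 37° C. under 5% CO2. Suc-LLVY-Glo substrate premixed with detection reagent (60 min at room temperature) is then added directly to the cells, and luminescence after 10-15 min in the dark gives the IC50 in nM.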

[4] = A549 cells, read-out: PGLo A549

Row | SMILES | IC50 [1] | IC50 [2] | IC50 (HT-29 cells) | IC50 [3, 4] | IC50 ([3]; A549, read-out: PGLo A549 [nM])
1 | Cc1ccc2cc1CNC(=O)[C@H](CCc1ccccc1)NC(=O)[C@@H](NC(=O)Cc1cccc(N)c1)CC(=O)N1CCCC(CCO2)C1 (stereo partly drawn) [Compound 127, 2-(3-aminophenyl)-N-((9S,12S)-5^4-methyl-8,11,14-trioxo-9-phenethyl-4-oxa-7,10-diaza-1(3,1)-piperidina-5(1,3)-benzenacyclotetradecaphane-12-yl)acetamide] | < 0.1 µM | < 0.1 µM | < 0.1 µM | < 100 nM | –
2 | CC(=O)N[C@H]1CC(=O)N2CCCC(CCOc3ccc(C)c(c3)CNC(=O)C(c3cnn(CCCS(=O)(=O)O)c3)NC1=O)C2 (stereo partly drawn) [Compound 571, 3-(4-((12S)-12-acetamido-5^4-methyl-8,11,14-trioxo-4-oxa-7,10-diaza-1(3,1)-piperidina-5(1,3)-benzenacyclotetradecaphane-9-yl)-1H-pyrazol-1-yl)propane-1-sulfonic acid] | < 0.1 µM | < 0.1 µM | 0.5 to 1 µM | < 100 nM | –
3 | Cc1ccc2cc1CNC(=O)[C@H](CCc1ccccc1)NC(=O)[C@@H](NS(=O)(=O)CCc1ccccc1)CC(=O)N1CCCC(CCO2)C1 (stereo partly drawn) [Compound 217, N-((9S,12S)-5^4-methyl-8,11,14-trioxo-9-phenethyl-4-oxa-7,10-diaza-1(3,1)-piperidina-5(1,3)-benzenacyclotetradecaphane-12-yl)-2-phenylethane-1-sulfonamide] | < 0.1 µM | < 0.1 µM | < 0.1 µM | < 100 nM | –
4 | Cc1ccc2cc1CNC(=O)[C@H](CCc1ccccc1)NC(=O)[C@@H](NC(=O)OCc1ccccc1)CCC(=O)N1CCCC(CCO2)C1 (stereo partly drawn) [Compound 199, benzyl ((9S,12S)-5^4-methyl-8,11,15-trioxo-9-phenethyl-4-oxa-7,10-diaza-1(3,1)-piperidina-5(1,3)-benzenacyclopentadecaphane-12-yl)carbamate] | < 0.1 µM | < 0.1 µM | < 0.1 µM | < 100 nM | –
5 | CC(=O)N[C@H]1CCC(=O)N2CCOC(CCOc3ccc(C)c(c3)CNC(=O)[C@H](CCc3ccccc3)NC1=O)C2 (stereo partly drawn) [Compound 143, N-((9S,12S)-5^4-methyl-8,11,15-trioxo-9-phenethyl-4-oxa-7,10-diaza-1(2,4)-morpholina-5(1,3)-benzenacyclopentadecaphane-12-yl)acetamide] | < 0.1 µM | < 0.1 µM | 0.1 to 0.5 µM | 100 to 500 nM | –
6 | CO[C@@H](C(=O)N[C@H]1CC(=O)N2CCCC(CCOc3ccc(C)c(c3)CNC(=O)[C@H](CCc3ccccc3)NC1=O)C2)c1ccccc1 (stereo partly drawn) [Compound 86, (2R)-2-methoxy-N-((9S,12S)-5^4-methyl-8,11,14-trioxo-9-phenethyl-4-oxa-7,10-diaza-1(3,1)-piperidina-5(1,3)-benzenacyclotetradecaphane-12-yl)-2-phenylacetamide] | < 0.1 µM | < 0.1 µM | < 0.1 µM | < 100 nM | –
7 | CC(=O)N[C@H]1CCCC(=O)N2CCOC(CCOc3ccc(C)c(c3)CNC(=O)[C@H](CCc3ccccc3)NC1=O)C2 (stereo partly drawn) [Compound 186, N-((9S,12S)-5^4-methyl-8,11,16-trioxo-9-phenethyl-4-oxa-7,10-diaza-1(2,4)-morpholina-5(1,3)-benzenacyclohexadecaphane-12-yl)acetamide] | < 0.1 µM | < 0.1 µM | 0.1 to 0.5 µM | 100 to 500 nM | –
8 | Cc1ccc2cc1CNC(=O)[C@H](C)NC(=O)CCC(=O)N1CCCC(CCO2)C1 (stereo partly drawn) [Compound 78, (9S)-5^4,9-dimethyl-4-oxa-7,10-diaza-1(3,1)-piperidina-5(1,3)-benzenacyclotetradecaphane-8,11,14-trione] | 0.1 to 0.5 µM | 1 to 5 µM | – | > 5000 nM | –
9 | Cc1ccc2cc1CNC(=O)[C@H](CCc1ccccc1)NC(=O)[C@@H](NC(=O)[C@@H](C)c1ccccc1)CC(=O)N1CCCC(CCO2)C1 (stereo partly drawn) [Compound 81, (2S)-N-((9S,12S)-5^4-methyl-8,11,14-trioxo-9-phenethyl-4-oxa-7,10-diaza-1(3,1)-piperidina-5(1,3)-benzenacyclotetradecaphane-12-yl)-2-phenylpropanamide] | < 0.1 µM | < 0.1 µM | < 0.1 µM | < 100 nM | –
10 | Cc1ccc2cc1CNC(=O)[C@H](CCc1ccccc1)NC(=O)[C@@H](N1C(=O)CCC1=O)CC(=O)N1CCCC(CCO2)C1 (stereo partly drawn) [Compound 43, (9S,12S)-12-(2,5-dioxopyrrolidin-1-yl)-5^4-methyl-9-phenethyl-4-oxa-7,10-diaza-1(3,1)-piperidina-5(1,3)-benzenacyclotetradecaphane-8,11,14-trione] | < 0.1 µM | < 0.1 µM | < 0.1 µM | 100 to 500 nM | –
11 | COCCOCCOCCOCCOCCC(=O)N[C@H]1CC(=O)N2CCCC(CCOc3ccc(C)c(c3)CNC(=O)[C@H](CCc3ccccc3)NC1=O)C2 (stereo partly drawn) [Compound 219, N-((9S,12S)-5^4-methyl-8,11,14-trioxo-9-phenethyl-4-oxa-7,10-diaza-1(3,1)-piperidina-5(1,3)-benzenacyclotetradecaphane-12-yl)-2,5,8,11,14-pentaoxaheptadecan-17-amide] | < 0.1 µM | < 0.1 µM | < 0.1 µM | < 100 nM | –
12 | CC(=O)N[C@H]1CCCC(=O)N2CC3CC(Oc4ccc(C)c(c4)CNC(=O)[C@H](CCc4ccccc4)NC1=O)C3C2 (stereo partly drawn) [Compound 191, N-((11R,15S,7S,10S)-3^4-methyl-6,9,14-trioxo-7-phenethyl-2-oxa-13,5,8-triaza-1(7,3)-bicyclo[3.2.0]heptana-3(1,3)-benzenacyclotetradecaphane-10-yl)acetamide] | < 0.1 µM | 0.5 to 1 µM | 1 to 5 µM | 1000 to 5000 nM | –
13 | Cc1ccc2cc1CNC(=O)[C@H](CCc1ccccc1)NC(=O)[C@@H](NC(=O)C1(C)CCNCC1)CC(=O)N1CCCC(CCO2)C1 (stereo partly drawn) [Compound 136, 4-methyl-N-((9S,12S)-5^4-methyl-8,11,14-trioxo-9-phenethyl-4-oxa-7,10-diaza-1(3,1)-piperidina-5(1,3)-benzenacyclotetradecaphane-12-yl)piperidine-4-carboxamide] | < 0.1 µM | < 0.1 µM | 0.1 to 0.5 µM | < 100 nM | –
14 | Cc1ccc2cc1CNC(=O)[C@H](CCc1ccccc1)NC(=O)[C@@H](NC(=O)C(C)(C)C#N)CC(=O)N1CCCC(CCO2)C1 (stereo partly drawn) [Compound 294, 2-cyano-2-methyl-N-((9S,12S)-54-methyl-8,11,14-trioxo-9-phenethyl-4-oxa-7,10-diaza-1(3,1)-piperidina-5(1,3)-benzenacyclotetradecaphane-12-yl)propanamide] | < 0.1 µM | < 0.1 µM | < 0.1 µM | < 100 nM | –
15 | CC(=O)N[C@H]1CCCC(=O)N2CCCC(CCOc3ccc(C)c(c3)CNC(=O)[C@H](CCc3ccccc3)NC1=O)C2 (stereo partly drawn) [Compound 213, N-((9S,12S)-5^4-methyl-8,11,16-trioxo-9-phenethyl-4-oxa-7,10-diaza-1(3,1)-piperidina-5(1,3)-benzenacyclohexadecaphane-12-yl)acetamide] | < 0.1 µM | < 0.1 µM | < 0.1 µM | 100 to 500 nM | –
16 | Cc1ccc2cc1CNC(=O)[C@H](CCc1ccccc1)NC(=O)[C@@H](NC(=O)OCc1ccccc1)CCCC(=O)N1CCCC(CCO2)C1 (stereo partly drawn) [Compound 195, benzyl ((9S,12S)-5^4-methyl-8,11,16-trioxo-9-phenethyl-4-oxa-7,10-diaza-1(3,1)-piperidina-5(1,3)-benzenacyclohexadecaphane-12-yl)carbamate] | < 0.1 µM | < 0.1 µM | < 0.1 µM | 100 to 500 nM | –
17 | Cc1ccc2cc1CNC(=O)[C@H](CCc1ccccc1)NC(=O)[C@@H](NC(=O)C1CCNCC1(F)F)CC(=O)N1CCCC(CCO2)C1 (stereo partly drawn) [Compound 152, 3,3-difluoro-N-((9S,12S)-5^4-methyl-8,11,14-trioxo-9-phenethyl-4-oxa-7,10-diaza-1(3,1)-piperidina-5(1,3)-benzenacyclotetradecaphane-12-yl)piperidine-4-carboxamide] | < 0.1 µM | < 0.1 µM | < 0.1 µM | < 100 nM | –
18 | CCOC(=O)N[C@H]1CC(=O)N2CCCC(CCOc3ccc(C)c(c3)CNC(=O)[C@H](CCc3ccccc3)NC1=O)C2 (stereo partly drawn) [Compound 39, ethyl ((9S,12S)-5^4-methyl-8,11,14-trioxo-9-phenethyl-4-oxa-7,10-diaza-1(3,1)-piperidina-5(1,3)-benzenacyclotetradecaphane-12-yl)carbamate] | < 0.1 µM | < 0.1 µM | < 0.1 µM | – | < 100 nM
19 | CC(=O)N[C@H]1CC(=O)N2CCCC(CCOc3ccc(C)c(c3)CNC(=O)C(CCc3cnccn3)NC1=O)C2 (stereo partly drawn) [Compound 564, N-((12S)-5^4-methyl-8,11,14-trioxo-9-(2-(pyrazin-2-yl)ethyl)-4-oxa-7,10-diaza-1(3,1)-piperidina-5(1,3)-benzenacyclotetradecaphane-12-yl)acetamide] | < 0.1 µM | – | < 0.1 µM | < 100 nM | –
